The record followed here is ChEMBL document CHEMBL5357068, “Discovery of Novel TLR7 Agonists as Systemic Agent for Combination With aPD1 for Use in Immuno-oncology” (ACS Med Chem Lett, 2024).

Series [1] can be described thus: Metabolic stability in cynomolgus monkey liver microsomes assessed as half-life. Type of series: ADME, Macaca fascicularis, Microsome. (Liver microsomes are vesicles of endoplasmic reticulum, rich in cytochrome P450 enzymes.)
Series [2] in a line: Permeability of compound across basolateral to apical side in human Caco-2 cells. In kind it is ADME, cell-based. The note with it: read-out: permeability.
For series [3], the system named is Blood. The series is described as follows: Induction of IFIT1 secretion in human whole blood. Type of series: functional, tissue-based.
Series [4] in a line: Metabolic stability in human liver microsomes assessed as half-life. In kind it is ADME, Microsome.
For a further series, the system named is CT26. The series is described as follows: Antitumor activity against mouse CT26 cells implanted in Balb/cAnNHsd mouse administered intraperitoneally once a week for 4 weeks in the presence of aPD1 antibody. Type of series: functional. The note with it: dose lower […], dose upper […], route ip.
A further series relates to Jurkat. The series can be described thus: Cytotoxicity against human Jurkat cells. In kind it is toxicity, cell-based.
The subject of series [5] is Blood. The series is described as follows: Induction of IP-10 secretion in human whole blood. Type of series: functional, tissue-based.
The test system of series [6] is Blood. The series is described as follows: Induction of TNF-alpha secretion in human whole blood. Type of series: functional, tissue-based.
Series [7] has as its target T1, Toll-like receptor 8 (Homo sapiens) (UniProt Q9NR97).
T1 sequence (whole entry): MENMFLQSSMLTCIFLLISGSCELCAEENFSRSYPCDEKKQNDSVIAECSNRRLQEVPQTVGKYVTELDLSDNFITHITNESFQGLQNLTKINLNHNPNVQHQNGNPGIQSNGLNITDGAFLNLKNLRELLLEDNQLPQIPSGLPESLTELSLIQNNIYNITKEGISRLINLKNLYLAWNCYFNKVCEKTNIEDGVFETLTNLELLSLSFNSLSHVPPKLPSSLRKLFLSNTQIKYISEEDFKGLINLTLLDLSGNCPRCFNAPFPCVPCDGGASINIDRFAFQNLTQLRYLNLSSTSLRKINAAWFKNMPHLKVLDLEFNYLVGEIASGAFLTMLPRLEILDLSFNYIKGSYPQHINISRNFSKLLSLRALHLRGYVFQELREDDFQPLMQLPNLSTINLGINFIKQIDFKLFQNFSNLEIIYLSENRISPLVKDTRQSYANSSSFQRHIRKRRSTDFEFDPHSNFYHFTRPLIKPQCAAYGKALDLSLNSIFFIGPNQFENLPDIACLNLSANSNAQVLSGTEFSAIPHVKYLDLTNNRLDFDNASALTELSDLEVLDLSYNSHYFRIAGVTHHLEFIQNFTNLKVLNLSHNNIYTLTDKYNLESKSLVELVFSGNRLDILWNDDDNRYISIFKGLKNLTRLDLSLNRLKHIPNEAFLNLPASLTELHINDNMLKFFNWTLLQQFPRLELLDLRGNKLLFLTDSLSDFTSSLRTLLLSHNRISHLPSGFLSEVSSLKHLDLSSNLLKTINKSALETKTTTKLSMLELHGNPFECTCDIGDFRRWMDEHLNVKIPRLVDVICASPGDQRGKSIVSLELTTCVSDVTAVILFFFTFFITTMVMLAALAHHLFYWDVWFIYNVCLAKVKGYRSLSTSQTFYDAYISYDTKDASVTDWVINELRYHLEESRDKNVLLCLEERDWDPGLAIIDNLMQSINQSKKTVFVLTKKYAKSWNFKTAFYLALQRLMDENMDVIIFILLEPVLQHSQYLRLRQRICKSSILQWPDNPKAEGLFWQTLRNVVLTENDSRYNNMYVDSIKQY
The series is described as follows: Agonist activity at human TLR8.

A further series is described as follows: in vitro. The note with it: PHA-activated T cells.
The nature of series [8]: Permeability of compound at pH 7.4 by PAMPA. Type of series: ADME. The note with it: read-out: permeability.
Series [9] in a line: Protein binding in mouse plasma assessed as free fraction. Type of series: ADME, cell-free.

Bounds are passed on as bounds.

As to `CCC[C@@H](CCO)Nc1nc(N)nc2cnn(Cc3ccc(CNC4CCOCC4)cc3OC)c12`, the values for the half-life in [1] and in series [4] were 16 min and 43 min, respectively. The Papp B→A in series [2] came out at 10.9 ×10⁻⁶ cm/s. Moreover, the figures for the EC50 in the series on Blood [3], with Blood [5] and in the series with Blood [6] were 0.1 nM, 0.13 nM and 631 nM, respectively. The Activity entry in the series on CT26 was “Dose-Dependent Effect”. Also, the values for the EC (in the series with Jurkat; in [7]) were more than 25 µM and more than 5 µM, respectively. For the same compound, in the series “in vitro”, the IC50 (in general, the concentration at which inhibition is half-maximal) was more than 25000 nM. Also, in series [8], the Papp was 1.58 ×10⁻⁶ cm/s. Also, the fraction unbound (in general, the share of the substance not bound to proteins or other matrix) in series [9] came to 0.41.
